These results are taken from ChEMBL document CHEMBL1141521, “Individual stereoisomers of phosphinic dipeptide inhibitor of leucine aminopeptidase” (Bioorg Med Chem Lett, 2008).

Molecules are shown by their SMILES. pKi: −log10 of the molar value.

The experiment addresses T1, Leucine aminopeptidase (Plasmodium falciparum 3D7, UniProt Q8IL11).
T1 sequence (Q8IL11 whole entry): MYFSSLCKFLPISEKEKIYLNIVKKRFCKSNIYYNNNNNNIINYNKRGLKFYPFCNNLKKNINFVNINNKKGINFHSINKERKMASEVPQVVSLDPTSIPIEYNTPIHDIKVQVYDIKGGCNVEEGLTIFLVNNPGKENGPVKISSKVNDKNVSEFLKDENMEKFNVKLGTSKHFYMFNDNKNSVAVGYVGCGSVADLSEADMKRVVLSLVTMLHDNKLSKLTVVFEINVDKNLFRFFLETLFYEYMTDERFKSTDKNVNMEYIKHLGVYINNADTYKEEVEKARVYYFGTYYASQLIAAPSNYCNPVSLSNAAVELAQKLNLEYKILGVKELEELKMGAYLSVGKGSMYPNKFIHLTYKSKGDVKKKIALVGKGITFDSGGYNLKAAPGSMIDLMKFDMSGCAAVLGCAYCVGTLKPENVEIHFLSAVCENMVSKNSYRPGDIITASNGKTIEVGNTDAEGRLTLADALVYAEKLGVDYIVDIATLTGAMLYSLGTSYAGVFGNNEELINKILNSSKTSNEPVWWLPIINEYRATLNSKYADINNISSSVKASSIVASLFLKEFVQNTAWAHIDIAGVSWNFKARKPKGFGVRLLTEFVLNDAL
Kind of experiment: Inhibition of Plasmodium falciparum recombinant leucine aminopeptidase.

As for `NC(CCc1ccccc1)P(=O)(O)CC(Cc1ccccc1)C(=O)O` (stereo unspecified), the pKi is 7.88.

For orientation: pKi means the negative decadic logarithm of the Ki, by convention in mol/L.
